Measured values from patent US8722849B2, “Polypeptides” (Novo Nordisk A/S, priority 2011, dated 2014).
≈ marks a conversion by molar mass, not a printed value. Where two headings read alike, the source gives them in different places. Starred links: 1 amine or outer side, 2 acyl side, 3 side chain; linkers in the order of their positions; H or OH if unused. Positions of bridges follow the written chain, without caps; N, C: chain ends. Residues, ends and D or L forms follow the SMILES beside them. *: point of attachment. C20 diacid = O=C(O)CCCCCCCCCCCCCCCCCCC(=O)*; γGlu = O=C(O)[C@H](CCC(=O)[*:2])N[*:1]

How the values were obtained:
[1] = Assay (III) ThT fibrillation assay for physical stability; assay type: physicochemical
How it was run: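 Freshly prepared formulations, pH-adjusted, with 1 μM ThT; four or eight replicates incubated at 37 °C under 960 rpm orbital shaking. Fluorescence (ex 444/em 485 nm) read every 20 min; […]. Peptide concentration measured by RP-HPLC before and after the run.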

[2] = Assay (IV) determination of solubility; assay type: physicochemical
How it was run: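 Polypeptide in water (~500 nmol/ml stock) was mixed 1:1 with 100 mM buffers from pH 3.0 to 8.0 (glycylglycine pH 3.0–5.0; bistrispropane pH 6.0–8.0). After 18 hours at room temperature, samples were centrifuged and the polypeptide remaining in solution was quantified by HPLC.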

[3] = target: T1, human calcitonin receptor (Homo sapiens, UniProt P30988); experiment: Assay (II)a functional CRE-luciferase assay, human calcitonin receptor; assay type: cell-based; details: Table 7; human calcitonin (CTa) receptor
T1 construct: expressed in transfected cells; host or cells: BHK570
T1 sequence (P30988 25-474): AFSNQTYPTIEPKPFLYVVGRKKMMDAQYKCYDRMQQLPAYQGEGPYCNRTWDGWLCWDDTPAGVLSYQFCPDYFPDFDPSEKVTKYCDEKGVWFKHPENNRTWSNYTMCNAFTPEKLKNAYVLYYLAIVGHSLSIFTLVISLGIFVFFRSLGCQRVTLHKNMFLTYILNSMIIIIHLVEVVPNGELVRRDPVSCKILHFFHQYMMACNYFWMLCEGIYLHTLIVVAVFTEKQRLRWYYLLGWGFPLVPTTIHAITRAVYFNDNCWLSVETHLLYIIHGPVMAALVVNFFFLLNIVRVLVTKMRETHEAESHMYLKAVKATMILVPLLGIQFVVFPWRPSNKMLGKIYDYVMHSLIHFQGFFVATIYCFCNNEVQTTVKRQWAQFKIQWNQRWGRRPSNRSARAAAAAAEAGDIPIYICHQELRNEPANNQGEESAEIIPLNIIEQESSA

[4] = target: T2, human amylin receptor (amylin 3(a) receptor: human calcitonin receptor + RAMP-3) (Homo sapiens, UniProt O60896+P30988); experiment: Assay (II)a functional CRE-luciferase assay, human amylin receptor; assay type: cell-based; details: Table 2; BHK amylin 3(a)-receptor/CRE-luc cells
T2 construct: expressed in transfected cells; host or cells: BHK570
T2 sequence (P30988 25-474): T1 sequence (P30988 25-474)
T2 sequence (O60896 24-148 partner): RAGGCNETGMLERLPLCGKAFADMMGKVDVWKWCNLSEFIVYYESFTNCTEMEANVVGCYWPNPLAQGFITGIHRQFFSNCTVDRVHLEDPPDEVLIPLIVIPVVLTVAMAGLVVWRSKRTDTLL

[5] = bistrispropane buffer, pH 6, pH 6.0, read-out: Solubility pH 6.0
[6] = bistrispropane buffer, pH 6.5, pH 6.5, read-out: Solubility pH 6.5
[7] = bistrispropane buffer, pH 7, pH 7.0, 18 hours at room temperature, Table 3, read-out: Solubility pH 7.0
[8] = bistrispropane buffer, pH 7, pH 7.0, Table 8, read-out: Solubility pH 7.0
[9] = bistrispropane buffer, pH 7, pH 7.0, Table 9, read-out: Solubility pH 7.0
[10] = bistrispropane buffer, pH 7, pH 7.0, read-out: Solubility pH 7.0
[11] = bistrispropane buffer, pH 7.5, pH 7.5, Table 9, read-out: Solubility pH 7.5
[12] = bistrispropane buffer, pH 7.5, pH 7.5, read-out: Solubility pH 7.5
[13] = bistrispropane buffer, pH 8, pH 8.0, read-out: Solubility pH 8.0
[14] = glycylglycine buffer, pH 3, pH 3.0, read-out: Solubility pH 3.0
[15] = glycylglycine buffer, pH 4, pH 4.0, 18 hours at room temperature, Table 2, read-out: Solubility pH 4.0
[16] = glycylglycine buffer, pH 4, pH 4.0, read-out: Solubility pH 4.0
[17] = glycylglycine buffer, pH 5, pH 5.0, read-out: Solubility pH 5.0

Q: For `CC[C@H](C)[C@H](NC(=O)[C@@H]1CCCN1C(=O)CNC(=O)[C@H](Cc1ccccc1)NC(=O)[C@H](CC(N)=O)NC(=O)[C@H](CC(N)=O)NC(=O)[C@H](CO)NC(=O)[C@H](CO)NC(=O)[C@H](Cc1c[nH]cn1)NC(=O)[C@H](Cc1c[nH]cn1)NC(=O)[C@H](CC(C)C)NC(=O)[C@H](Cc1ccccc1)NC(=O)[C@H](CCC(=O)O)NC(=O)[C@H](C)NC(=O)[C@H](CC(C)C)NC(=O)[C@H](CCCCN)NC(=O)[C@H](CCC(N)=O)NC(=O)[C@@H](NC(=O)[C@H](C)NC(=O)[C@@H]1CSSC[C@H](NC(=O)[C@H](CCCCN)NC(=O)CC[C@H](NC(=O)CCCCCCCCCCCCCCCCCCC(=O)O)C(=O)O)C(=O)N[C@@H](CC(N)=O)C(=O)N[C@@H]([C@@H](C)O)C(=O)N[C@@H](C)C(=O)N[C@@H]([C@@H](C)O)C(=O)N1)[C@@H](C)O)C(=O)N[C@@H](CC(C)C)C(=O)N1CCC[C@H]1C(=O)N1CCC[C@H]1C(=O)N[C@H](C(=O)N[C@@H](CC(N)=O)C(=O)N[C@H](C(=O)NCC(=O)N[C@@H](CO)C(=O)N[C@@H](CC(N)=O)C(=O)N[C@H](C(=O)N1CCC[C@H]1C(N)=O)[C@@H](C)O)C(C)C)[C@@H](C)O` [Example 145, N-alpha-[(S)-4-Carboxy-4-(19-carboxynonadecanoylamino)butyryl]-[Lys11,Glu14,His17,Pro37]-pramlintide] ({C20 diacid-γGlu}-KCNTATCATQKLAEFLHHSSNNFGPILPPTNVGSNTP-NH2; disulfide 2-7 (inferred)), which “ThT pH 4.0 lag time” value ([1]; Table 8) is on record?
A: >45 h

Q: What about the “ThT pH 4.0 lag time” value ([1]; Table 9) of the same compound?
A: >45 h

Q: What about the “ThT pH 4.0 lag time” value ([1]; ThT fibrillation assay) of the same compound?
A: >45 h

Q: And the “ThT pH 4.0 lag time (h)” value ([1]; ThT fibrillation assay)?
A: >45 h

Q: What about the solubility at 18 h [2, 5] of the same compound?
A: 178 µM (≈ 776 µg/mL)

Q: And the solubility at 18 h [2, 6]?
A: > 200 µM

Q: What about the solubility at 18 h [2, 7] of the same compound?
A: > 200 µM

Q: What about the solubility at 18 h [2, 8] of the same compound?
A: > 200 µM

Q: What about the solubility at 18 h [2, 9] of the same compound?
A: > 200 µM

Q: What about the solubility at 18 h [2, 10] of the same compound?
A: > 200 µM

Q: What about the solubility at 18 h [2, 11] of the same compound?
A: > 200 µM

Q: And the solubility at 18 h [2, 12]?
A: > 200 µM

Q: And the solubility at 18 h [2, 13]?
A: > 200 µM

Q: What about the solubility at 18 h [2, 14] of the same compound?
A: > 200 µM

Q: What about the solubility at 18 h [2, 15] of the same compound?
A: > 200 µM

Q: What about the solubility at 18 h [2, 16] of the same compound?
A: > 200 µM

Q: And the solubility at 18 h [2, 17]?
A: > 200 µM

Q: And the EC50 [3]?
A: 0.083 nM

Q: And the EC50 [4]?
A: 0.0805 nM

Q: What does the source list for `CC[C@H](C)[C@H](NC(=O)[C@@H]1CCCN1C(=O)CNC(=O)[C@H](Cc1ccccc1)NC(=O)[C@H](CC(N)=O)NC(=O)[C@@H](NC(=O)[C@H](CO)NC(=O)[C@H](CO)NC(=O)[C@H](Cc1c[nH]cn1)NC(=O)[C@H](Cc1c[nH]cn1)NC(=O)[C@H](CC(C)C)NC(=O)[C@H](Cc1ccccc1)NC(=O)[C@H](CCC(=O)O)NC(=O)[C@H](C)NC(=O)[C@H](CC(C)C)NC(=O)[C@H](CCCNC(=N)N)NC(=O)[C@H](CCC(N)=O)NC(=O)[C@@H](NC(=O)[C@H](C)NC(=O)[C@@H]1CSSC[C@H](NC(=O)[C@H](CCCCN)NC(=O)CC[C@H](NC(=O)CCCCCCCCCCCCCCCCCCC(=O)O)C(=O)O)C(=O)N[C@@H](CC(N)=O)C(=O)N[C@@H]([C@@H](C)O)C(=O)N[C@@H](C)C(=O)N[C@@H]([C@@H](C)O)C(=O)N1)[C@@H](C)O)[C@@H](C)O)C(=O)N[C@@H](CC(C)C)C(=O)N1CCC[C@H]1C(=O)N1CCC[C@H]1C(=O)N[C@H](C(=O)N[C@@H](CC(N)=O)C(=O)N[C@H](C(=O)NCC(=O)N[C@@H](CO)C(=O)N[C@@H](CC(N)=O)C(=O)N[C@H](C(=O)N1CCC[C@H]1C(N)=O)[C@@H](C)O)C(C)C)[C@@H](C)O` [Example 146, N-alpha-[(S)-4-Carboxy-4-(19-carboxynonadecanoylamino)butyryl]-[Glu14,His17,Thr21,Pro37]-pramlintide] ({C20 diacid-γGlu}-KCNTATCATQRLAEFLHHSSTNFGPILPPTNVGSNTP-NH2; disulfide 2-7 (inferred))?
A: ThT pH 4.0 lag time ([1]; Table 8): >45 h; ThT pH 4.0 lag time ([1]; Table 9): >45 h; ThT pH 4.0 lag time ([1]; ThT fibrillation assay): >45 h; ThT pH 4.0 lag time (h) ([1]; ThT fibrillation assay): >45 h; solubility at 18 h [2, 5]: > 200 µM; solubility at 18 h [2, 6]: > 200 µM; solubility at 18 h [2, 7]: > 200 µM; solubility at 18 h [2, 8]: > 200 µM; solubility at 18 h [2, 9]: > 200 µM; solubility at 18 h [2, 10]: > 200 µM; solubility at 18 h [2, 11]: > 200 µM; solubility at 18 h [2, 12]: > 200 µM; solubility at 18 h [2, 13]: > 200 µM; solubility at 18 h [2, 14]: > 200 µM; solubility at 18 h [2, 15]: > 200 µM; solubility at 18 h [2, 16]: > 200 µM; solubility at 18 h [2, 17]: > 200 µM; EC50 [3]: 0.0595 nM; EC50 [4]: 0.091 nM

Q: Which results are given for `CC[C@H](C)[C@H](NC(=O)[C@@H]1CCCN1C(=O)CNC(=O)[C@H](Cc1ccccc1)NC(=O)[C@H](CC(N)=O)NC(=O)[C@H](CCC(N)=O)NC(=O)[C@H](CO)NC(=O)[C@H](CO)NC(=O)[C@H](Cc1c[nH]cn1)NC(=O)[C@H](CCCNC(=N)N)NC(=O)[C@H](CC(C)C)NC(=O)[C@H](Cc1ccccc1)NC(=O)[C@H](CCC(=O)O)NC(=O)[C@H](C)NC(=O)[C@H](CC(C)C)NC(=O)[C@H](CCCNC(=N)N)NC(=O)[C@H](CCC(N)=O)NC(=O)[C@@H](NC(=O)[C@H](C)NC(=O)[C@@H]1CSSC[C@H](NC(=O)[C@H](CCC(=O)O)NC(=O)[C@H](CCCNC(=N)N)NC(=O)[C@H](CCC(=O)O)NC(=O)CC[C@H](NC(=O)CCCCCCCCCCCCCCCCCCC(=O)O)C(=O)O)C(=O)N[C@@H](CC(N)=O)C(=O)N[C@@H]([C@@H](C)O)C(=O)N[C@@H](C)C(=O)N[C@@H]([C@@H](C)O)C(=O)N1)[C@@H](C)O)C(=O)N[C@@H](CC(C)C)C(=O)N1CCC[C@H]1C(=O)N1CCC[C@H]1C(=O)N[C@H](C(=O)N[C@@H](CC(N)=O)C(=O)N[C@H](C(=O)NCC(=O)N[C@@H](CO)C(=O)N[C@@H](CC(N)=O)C(=O)N[C@H](C(=O)N1CCC[C@H]1C(N)=O)[C@@H](C)O)C(C)C)[C@@H](C)O` [Example 161, N-alpha-[(S)-4-Carboxy-4-(19-carboxynonadecanoylamino)butyryl]-Glu-Arg-[Glu1,Glu14,Arg17,Gln21,Pro37]-pramlintide] ({C20 diacid-γGlu}-ERECNTATCATQRLAEFLRHSSQNFGPILPPTNVGSNTP-NH2; disulfide 4-9 (inferred); C-terminus assumed)?
A: ThT pH 4.0 lag time ([1]; Table 8): >45 h; ThT pH 4.0 lag time ([1]; Table 9): >45 h; ThT pH 4.0 lag time ([1]; ThT fibrillation assay): >45 h; ThT pH 4.0 lag time (h) ([1]; ThT fibrillation assay): >45 h; solubility at 18 h [2, 5]: > 200 µM; solubility at 18 h [2, 6]: > 200 µM; solubility at 18 h [2, 7]: > 200 µM; solubility at 18 h [2, 8]: > 200 µM; solubility at 18 h [2, 9]: > 200 µM; solubility at 18 h [2, 10]: > 200 µM; solubility at 18 h [2, 11]: > 200 µM; solubility at 18 h [2, 12]: > 200 µM; solubility at 18 h [2, 13]: > 200 µM; solubility at 18 h [2, 14]: > 200 µM; solubility at 18 h [2, 15]: > 200 µM; solubility at 18 h [2, 16]: > 200 µM; solubility at 18 h [2, 17]: > 200 µM; EC50 [3]: 1.13 nM; EC50 [4]: 0.232 nM
